From patent US8507005B2, “Particulates of a CRTH2 antagonist” (Actimis Pharmaceuticals, Inc., priority 2007, dated 2013)
≈ marks a conversion by molar mass, not a printed value. Where two headings read alike, the source gives them in different places.

Assays:
[1] = Thermogravimetric analysis (thermal stability); format: physicochemical; details: TGA, heating rate 20° C./min
Protocol: The thermogravimetric analysis was also conducted on a Mettler 850, TA 2920. Samples were placed into a ceramic or aluminum sample pan. A heating rate of 20° C./min was employed over a temperature range from 20° C. to 600° C.

[2] = Solubility of saturated solutions determined by HPLC; format: physicochemical
Protocol: Saturated solutions of {4,6-bis(dimethylamino)-2-(4-(4-(trifluoromethyl)-benzamido)benzyl)pyrimidin-5-yl}acetic acid of Formula I in the solvents listed in Table 1 were prepared from the acid predominantly in Form I, at both 25 and 50° C.

DP1 = target: T1, DP1 (Homo sapiens, UniProt Q13258); test: Competitive radioligand (3H-PGD2) binding assay, DP1-transfected cells; details: competition with 1 nM 3H-PGD2, DP1-transfected cells, FIG. 11
T1 sequence (Q13258 1-359): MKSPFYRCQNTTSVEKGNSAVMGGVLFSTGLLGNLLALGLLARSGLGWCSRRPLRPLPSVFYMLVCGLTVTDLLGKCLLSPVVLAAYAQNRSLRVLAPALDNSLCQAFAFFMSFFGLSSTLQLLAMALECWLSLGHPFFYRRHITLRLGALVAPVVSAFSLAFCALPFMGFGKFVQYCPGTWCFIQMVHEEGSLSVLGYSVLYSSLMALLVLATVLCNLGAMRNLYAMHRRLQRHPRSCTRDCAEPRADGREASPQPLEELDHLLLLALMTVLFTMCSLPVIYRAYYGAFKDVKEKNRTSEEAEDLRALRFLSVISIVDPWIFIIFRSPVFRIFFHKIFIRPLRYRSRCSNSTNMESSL
Protocol: The binding affinity and selectivity of the amine salts of 4,6-bis(dimethylamino)-2-(4-(4-(trifluoromethyl)benzamido)benzyl)pyrimidin-5-yl}acetic acid provided herein were evaluated using a competitive radioligand binding assay with stably-transfected cell lines expressing CRTH2 or DP1.
Prostaglandin D2 and 13,14-dihydro-15-keto PGD2 were obtained from Cayman Chemical (Ann Arbor, Mich.). Radiolabelled PGD2 (5,6,8,9,12,14,15-^3H(N)) with a specific activity of 160 Ci/mmol was obtained from PerkinElmer (Boston, Mass.). Cell culture medium RPMI 1640, HEPES buffer, phosphate buffered saline (PBS), L-glutamine, and penicillin-streptomycin solution were obtained from Mediatech Inc. (Herndon, Va.). Fetal calf serum (FCS) was obtained from Cambrex (Walkersville, Md.). Puromycin was obtained from Invitrogen (San Diego, Calif.). Poly(ethyleneimine) (PEI) was obtained from Acros Organics (Morris Plains, N.J.). […]
Radioligand binding analyses were performed according to the methods of Sugimoto et al. (J. Pharm. Exp. Therap. 2003, 305, 347-352; Eur. J. Pharmacol. 2005, 524, 30-37). […] Scintillant (50 μL; Microscint™ 20, Perkin Elmer, Boston, Mass.) was added to each well and the radioactivity was counted on a TopCount (Packard Bioscience, Meriden, Conn.). […]

CRTH2 = target: T2, CRTH2 (Homo sapiens, UniProt Q9Y5Y4); test: Competitive radioligand (3H-PGD2) binding assay, CRTH2-transfected cells; details: competition with 1 nM 3H-PGD2, CRTH2-transfected cells, FIG. 10
T2 construct: expressed in transfected cells
T2 sequence (Q9Y5Y4 1-395): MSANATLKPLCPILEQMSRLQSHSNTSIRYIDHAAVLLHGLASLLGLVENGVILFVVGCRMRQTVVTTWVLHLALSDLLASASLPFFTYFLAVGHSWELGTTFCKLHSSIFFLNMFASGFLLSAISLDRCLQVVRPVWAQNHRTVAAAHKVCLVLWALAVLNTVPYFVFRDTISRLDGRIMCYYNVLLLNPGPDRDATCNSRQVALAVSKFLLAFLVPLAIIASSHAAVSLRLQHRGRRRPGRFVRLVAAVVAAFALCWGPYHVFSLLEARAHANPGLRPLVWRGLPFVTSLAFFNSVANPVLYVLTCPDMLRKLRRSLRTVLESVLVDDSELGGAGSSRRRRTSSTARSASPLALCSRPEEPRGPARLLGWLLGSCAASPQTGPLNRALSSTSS
From the text: Prostaglandin D2 and 13,14-dihydro-15-keto PGD2 were obtained from Cayman Chemical (Ann Arbor, Mich.). Radiolabelled PGD2 (5,6,8,9,12,14,15-^3H(N)) with a specific activity of 160 Ci/mmol was obtained from PerkinElmer (Boston, Mass.). Cell culture medium RPMI 1640, HEPES buffer, phosphate buffered saline (PBS), L-glutamine, and penicillin-streptomycin solution were obtained from Mediatech Inc. (Herndon, Va.). Fetal calf serum (FCS) was obtained from Cambrex (Walkersville, Md.). Puromycin was obtained from Invitrogen (San Diego, Calif.). […]
The surface expression of CRTH2 on the transfected cell lines was monitored periodically during culture and prior to each competitive radioligand binding assay. […] The cells were then washed in 2 mL of FACS buffer (PBS containing 1% BSA (Fraction V) and 0.1% sodium azide. The cells were subsequently incubated on ice with a FITC-conjugated anti-rat antibody (goat anti-rat Ig-FITC). After washed with cold FACS buffer, the cells were analyzed using a FACScan II analyzer and CellQuest software, both from Becton Dickinson (Mountain View, Calif.). […]

Which “decomposition temperature (no significant weight loss until decomposition)” value [1] does the source give for CN(C)c1nc(Cc2ccc(NC(=O)c3ccc(C(F)(F)F)cc3)cc2)nc(N(C)C)c1CC(=O)O [Form I, {4,6-bis(dimethylamino)-2-(4-(4-(trifluoromethyl)benzamido)benzyl)pyrimidin-5-yl}acetic acid] here?
The value was “around 200 °C”.

And the solubility ([2]; water, at room temperature, read-out: aqueous solubility)?
Its solubility is about 3 µg/mL (≈ 5.98 µM).

Which “binding selectivity for CRTH2 versus DP1” value (DP1) does the source give for CN(C)c1nc(Cc2ccc(NC(=O)c3ccc(C(F)(F)F)cc3)cc2)nc(N(C)C)c1CC(=O)O [Formula I, {4,6-bis(dimethylamino)-2-(4-(4-(trifluoro-methyl)benzamido)benzyl)pyrimidin-5-yl}acetic acid] here?
The value was “binds selectively to CRTH2”.

And the “binding affinity for CRTH2” value (CRTH2)?
Its value is “high affinity”.

What about the solubility ([2]; organic solvent or mixture, thermodynamic from solid, 1,4-Dioxane, 25° C., read-out: Solubility) of the same molecule?
Its solubility is 3370 µg/mL.

What about the solubility ([2]; organic solvent or mixture, thermodynamic from solid, 1,4-Dioxane, 50° C., read-out: Solubility) of the same molecule?
The solubility was 9830 µg/mL.

And the solubility ([2]; organic solvent or mixture, thermodynamic from solid, 1-Propanol, 25° C., read-out: Solubility)?
Its solubility is 790 µg/mL.

What about the solubility ([2]; organic solvent or mixture, thermodynamic from solid, 1-Propanol, 50° C., read-out: Solubility) of the same molecule?
The solubility was 2410 µg/mL.

And the solubility ([2]; organic solvent or mixture, thermodynamic from solid, 2-Methoxyethanol, 25° C., read-out: Solubility)?
Its solubility is 5350 µg/mL.

And the solubility ([2]; organic solvent or mixture, thermodynamic from solid, 2-Methoxyethanol, 50° C., read-out: Solubility)?
Its solubility is 8550 µg/mL.

What about the solubility ([2]; organic solvent or mixture, thermodynamic from solid, Acetone, 25° C., read-out: Solubility) of the same molecule?
Its solubility is 2620 µg/mL.

What about the solubility ([2]; organic solvent or mixture, thermodynamic from solid, Acetone, 50° C., read-out: Solubility) of the same molecule?
Its solubility is 3340 µg/mL.

What about the solubility ([2]; organic solvent or mixture, thermodynamic from solid, DMSO, 25° C., read-out: Solubility) of the same molecule?
Its solubility is over 50000 µg/mL.

What about the solubility ([2]; organic solvent or mixture, thermodynamic from solid, DMSO, 50° C., read-out: Solubility) of the same molecule?
Its solubility is over 50000 µg/mL.

And the solubility ([2]; organic solvent or mixture, thermodynamic from solid, Ethanol, 25° C., read-out: Solubility)?
Its solubility is 1090 µg/mL.

What about the solubility ([2]; organic solvent or mixture, thermodynamic from solid, Ethanol, 50° C., read-out: Solubility) of the same molecule?
Its solubility is 2250 µg/mL.

What about the solubility ([2]; organic solvent or mixture, thermodynamic from solid, Ethyl acetate, 25° C., read-out: Solubility) of the same molecule?
Its solubility is 530 µg/mL.

What about the solubility ([2]; organic solvent or mixture, thermodynamic from solid, Ethyl acetate, 50° C., read-out: Solubility) of the same molecule?
The solubility was 1270 µg/mL.

And the solubility ([2]; organic solvent or mixture, thermodynamic from solid, Ethyl formate, 25° C., read-out: Solubility)?
Its solubility is 390 µg/mL.

What about the solubility ([2]; organic solvent or mixture, thermodynamic from solid, Ethyl formate, 50° C., read-out: Solubility) of the same molecule?
The solubility was 1510 µg/mL.

And the solubility ([2]; organic solvent or mixture, thermodynamic from solid, Isobutyl acetate, 25° C., read-out: Solubility)?
Its solubility is 200 µg/mL.

What about the solubility ([2]; organic solvent or mixture, thermodynamic from solid, Isobutyl acetate, 50° C., read-out: Solubility) of the same molecule?
Its solubility is 830 µg/mL.

What about the solubility ([2]; organic solvent or mixture, thermodynamic from solid, Isopropanol, 25° C., read-out: Solubility) of the same molecule?
Its solubility is 770 µg/mL.

And the solubility ([2]; organic solvent or mixture, thermodynamic from solid, Isopropanol, 50° C., read-out: Solubility)?
Its solubility is 1960 µg/mL.

What about the solubility ([2]; organic solvent or mixture, thermodynamic from solid, Isopropyl acetate, 25° C., read-out: Solubility) of the same molecule?
The solubility was 270 µg/mL.

What about the solubility ([2]; organic solvent or mixture, thermodynamic from solid, Isopropyl acetate, 50° C., read-out: Solubility) of the same molecule?
The solubility was 780 µg/mL.

What about the solubility ([2]; organic solvent or mixture, thermodynamic from solid, MIBK, 25° C., read-out: Solubility) of the same molecule?
The solubility was 540 µg/mL.

What about the solubility ([2]; organic solvent or mixture, thermodynamic from solid, MIBK, 50° C., read-out: Solubility) of the same molecule?
The solubility was 1800 µg/mL.

What about the solubility ([2]; organic solvent or mixture, thermodynamic from solid, MTBE, 25° C., read-out: Solubility) of the same molecule?
The solubility was 90 µg/mL.

And the solubility ([2]; organic solvent or mixture, thermodynamic from solid, MTBE, 50° C., read-out: Solubility)?
Its solubility is 410 µg/mL.

And the solubility ([2]; organic solvent or mixture, thermodynamic from solid, Methanol, 25° C., read-out: Solubility)?
The solubility was 2230 µg/mL.

What about the solubility ([2]; organic solvent or mixture, thermodynamic from solid, Methanol, 50° C., read-out: Solubility) of the same molecule?
Its solubility is 3040 µg/mL.

And the solubility ([2]; organic solvent or mixture, thermodynamic from solid, Toluene, 50° C., read-out: Solubility)?
The solubility was 30 µg/mL.

What about the solubility ([2]; organic solvent or mixture, thermodynamic from solid, n-Butanol, 25° C., read-out: Solubility) of the same molecule?
The solubility was 790 µg/mL.

And the solubility ([2]; organic solvent or mixture, thermodynamic from solid, n-Butanol, 50° C., read-out: Solubility)?
The solubility was 2110 µg/mL.

And the solubility ([2]; saturated solution in DMF, organic solvent or mixture, thermodynamic from solid, DMF, 25° C., read-out: Solubility)?
The solubility was over 50000 µg/mL.

And the solubility ([2]; saturated solution in DMF, organic solvent or mixture, thermodynamic from solid, DMF, 50° C., read-out: Solubility)?
Its solubility is over 50000 µg/mL.

And the solubility ([2]; saturated solution in MEK, organic solvent or mixture, thermodynamic from solid, MEK, 25° C., read-out: Solubility)?
The solubility was 1980 µg/mL.

What about the solubility ([2]; saturated solution in MEK, organic solvent or mixture, thermodynamic from solid, MEK, 50° C., read-out: Solubility) of the same molecule?
Its solubility is 4260 µg/mL.

And the solubility ([2]; saturated solution in THF, organic solvent or mixture, thermodynamic from solid, THF, 25° C., read-out: Solubility)?
Its solubility is 11300 µg/mL.

And the solubility ([2]; saturated solution in THF, organic solvent or mixture, thermodynamic from solid, THF, 50° C., read-out: Solubility)?
Its solubility is 32700 µg/mL.

And the solubility ([2]; saturated solution in acetonitrile, organic solvent or mixture, thermodynamic from solid, Acetonitrile, 25° C., read-out: Solubility)?
Its solubility is 240 µg/mL.

What about the solubility ([2]; saturated solution in acetonitrile, organic solvent or mixture, thermodynamic from solid, Acetonitrile, 50° C., read-out: Solubility) of the same molecule?
Its solubility is 940 µg/mL.

And the solubility ([2]; saturated solution in chloroform, organic solvent or mixture, thermodynamic from solid, Chloroform, 25° C., read-out: Solubility)?
The solubility was 170 µg/mL.

What about the solubility ([2]; saturated solution in chloroform, organic solvent or mixture, thermodynamic from solid, Chloroform, 50° C., read-out: Solubility) of the same molecule?
Its solubility is 350 µg/mL.

What about the solubility ([2]; saturated solution in dichloromethane, organic solvent or mixture, thermodynamic from solid, Dichloromethane, 25° C., read-out: Solubility) of the same molecule?
Its solubility is 70 µg/mL.

And the solubility ([2]; thermodynamic from solid, Water, 50° C., read-out: Solubility)?
The solubility was 20 µg/mL.
